In patent US11919899B2, “Substituted 1-(3,3-difluoropiperidin-4-yl)-imidazo[4,5-c] quinolin-2-one compounds with blood-brain barrier penetrable capability” (priority 2020, dated 2024):

How the values were obtained:
[1] = Blood-brain barrier penetration (brain tissue to plasma concentration ratio); type: in vivo; settings: ratio of concentration in brain tissue to plasma; rats or mice, four hours after dosing
Description: Four hours after dosing, rats or mice were sacrificed, blood and brain tissue were collected and the concentration of the test compound was analyzed. Brain permeation is defined as the ratio of the concentration of the compound in the brain tissue to the concentration in the plasma. P-glycoprotein and BCRP (Breast Cancer Resistance Protein) are the blood-brain barrier efflux proteins, the P-glycoprotein substrate (Efflux ratio>1.5) and/or BCRP substrate (Efflux ratio>1.5) is out of the brain.

P-glycoprotein = P-glycoprotein (Homo sapiens, UniProt P08183); experiment: P-glycoprotein efflux substrate; type: in vitro ADME; settings: not told
P-glycoprotein, sequence (P08183 whole entry): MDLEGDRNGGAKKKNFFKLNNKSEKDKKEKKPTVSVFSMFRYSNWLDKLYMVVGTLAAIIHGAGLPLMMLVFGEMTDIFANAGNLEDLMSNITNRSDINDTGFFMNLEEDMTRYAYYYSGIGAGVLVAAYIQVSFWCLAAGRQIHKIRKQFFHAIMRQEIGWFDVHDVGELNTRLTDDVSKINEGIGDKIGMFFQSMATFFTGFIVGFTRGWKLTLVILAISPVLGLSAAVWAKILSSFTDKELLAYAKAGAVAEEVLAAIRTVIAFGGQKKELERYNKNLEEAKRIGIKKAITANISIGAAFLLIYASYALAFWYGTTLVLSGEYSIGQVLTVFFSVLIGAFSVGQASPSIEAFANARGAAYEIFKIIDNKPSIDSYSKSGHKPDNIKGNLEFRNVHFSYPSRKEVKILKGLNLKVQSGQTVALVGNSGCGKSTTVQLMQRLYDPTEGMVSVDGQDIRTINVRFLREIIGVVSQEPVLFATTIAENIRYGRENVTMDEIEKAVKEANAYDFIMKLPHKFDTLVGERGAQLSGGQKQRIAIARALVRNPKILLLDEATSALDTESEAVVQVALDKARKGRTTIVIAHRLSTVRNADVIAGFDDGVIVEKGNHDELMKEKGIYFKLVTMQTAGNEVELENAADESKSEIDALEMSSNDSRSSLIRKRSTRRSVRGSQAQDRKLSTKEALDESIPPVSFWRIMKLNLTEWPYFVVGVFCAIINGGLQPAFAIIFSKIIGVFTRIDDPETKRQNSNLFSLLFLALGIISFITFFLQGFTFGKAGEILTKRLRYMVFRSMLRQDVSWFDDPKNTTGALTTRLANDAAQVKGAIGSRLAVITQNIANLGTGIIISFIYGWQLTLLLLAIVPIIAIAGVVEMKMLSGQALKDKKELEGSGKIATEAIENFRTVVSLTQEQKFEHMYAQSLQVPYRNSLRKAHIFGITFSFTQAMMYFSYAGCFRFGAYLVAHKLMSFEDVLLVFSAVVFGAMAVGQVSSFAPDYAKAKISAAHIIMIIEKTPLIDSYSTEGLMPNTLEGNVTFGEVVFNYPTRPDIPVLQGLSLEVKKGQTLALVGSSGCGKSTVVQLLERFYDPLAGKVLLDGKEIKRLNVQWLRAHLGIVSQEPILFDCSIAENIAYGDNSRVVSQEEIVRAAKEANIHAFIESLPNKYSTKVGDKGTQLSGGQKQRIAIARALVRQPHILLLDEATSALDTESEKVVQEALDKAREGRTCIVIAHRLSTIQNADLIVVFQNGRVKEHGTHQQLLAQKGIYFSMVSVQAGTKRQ

BCRP = molecular target: T1, BCRP (Homo sapiens, UniProt Q9UNQ0); experiment: BCRP efflux substrate; type: in vitro ADME; settings: not told
T1 sequence (Q9UNQ0 1-655): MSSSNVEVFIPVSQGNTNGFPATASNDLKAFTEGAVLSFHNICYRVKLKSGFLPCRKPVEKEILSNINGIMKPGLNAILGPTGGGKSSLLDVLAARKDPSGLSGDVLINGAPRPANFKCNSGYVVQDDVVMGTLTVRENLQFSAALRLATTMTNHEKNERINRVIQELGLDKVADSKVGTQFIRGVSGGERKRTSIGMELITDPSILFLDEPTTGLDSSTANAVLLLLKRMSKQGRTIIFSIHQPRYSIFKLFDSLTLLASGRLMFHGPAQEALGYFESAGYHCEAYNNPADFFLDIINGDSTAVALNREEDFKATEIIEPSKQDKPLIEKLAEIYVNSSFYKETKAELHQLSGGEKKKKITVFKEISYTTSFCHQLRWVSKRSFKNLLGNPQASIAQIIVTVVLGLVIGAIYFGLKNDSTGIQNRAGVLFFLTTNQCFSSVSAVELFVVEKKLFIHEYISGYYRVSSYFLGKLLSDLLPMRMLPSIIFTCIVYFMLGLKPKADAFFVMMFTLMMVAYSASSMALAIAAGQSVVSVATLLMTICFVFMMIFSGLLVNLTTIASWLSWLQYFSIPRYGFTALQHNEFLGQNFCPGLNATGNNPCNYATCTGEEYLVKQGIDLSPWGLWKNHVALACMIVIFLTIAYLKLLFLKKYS

Compound	Kp at 4 h [1]	efflux ratio (P-glycoprotein)	efflux ratio (BCRP)
CCN1CCC(n2c(=O)n(C)c3cnc4ccc(-c5ccc(OC)nc5)cc4c32)C(F)(F)C1 (racemic) [Compound 2, (R/S)-1-(1-ethyl-3,3-difluoropiperidin-4-yl)-8-(6-methoxypyridin-3-yl)-3-methyl-1,3-dihydro-2H-imidazo[4,5-c]quinolin-2-one]	> 0.3	< 1	< 1
COc1ccc(-c2ccc3ncc4c(c3c2)n(C2CCN(C(C)C)CC2(F)F)c(=O)n4C)cn1 (racemic) [Compound 3, (R/S)-1-(3,3-difluoro-1-isopropylpiperidin-4-yl)-8-(6-methoxypyridin-3-yl)-3-methyl-1,3-dihydro-2H-imidazo[4,5-c]quinolin-2-one]	> 0.3	< 1	< 1
CCOc1ccc(-c2ccc3ncc4c(c3c2)n(C2CCN(C)CC2(F)F)c(=O)n4C)cn1 (racemic) [Compound 4, (R/S)-1-(3,3-difluoro-1-methylpiperidin-4-yl)-8-(6-ethoxypyridin-3-yl)-3-methyl-1,3-dihydro-2H-imidazo[4,5-c]quinolin-2-one]	> 0.3	< 1	< 1
COc1ccc(-c2cc3c(cc2F)ncc2c3n(C3CCN(C)CC3(F)F)c(=O)n2C)cn1 (racemic) [Compound 5, (R/S)-1-(3,3-difluoro-1-methylpiperidin-4-yl)-7-fluoro-8-(6-methoxypyridin-3-yl)-3-methyl-1,3-dihydro-2H-imidazo[4,5-c]quinolin-2-one]	> 0.3	< 1	< 1
CC(C)Oc1ccc(-c2ccc3ncc4c(c3c2)n(C2CCN(C)CC2(F)F)c(=O)n4C)cn1 (racemic) [Compound 7, (R/S)-1-(3,3-difluoro-1-methylpiperidin-4-yl)-8-(6-isopropoxypyridin-3-yl)-3-methyl-1,3-dihydro-2H-imidazo[4,5-c]quinolin-2-one]	> 0.3	< 1	< 1
CN1CCC(n2c(=O)n(C)c3cnc4ccc(-c5ccc(N(C)C)nc5)cc4c32)C(F)(F)C1 (racemic) [Compound 8, (R/S)-1-(3,3-difluoro-1-methylpiperidin-4-yl)-8-(6-(dimethylamino)pyridin-3-yl)-3-methyl-1,3-dihydro-2H-imidazo[4,5-c]quinolin-2-one]	> 0.3	< 1	< 1
CN1CCC(n2c(=O)n(C)c3cnc4ccc(-c5ccc(OC6CC6)nc5)cc4c32)C(F)(F)C1 (racemic) [Compound 10, (R/S)-8-(6-cyclopropoxypyridin-3-yl)-1-(3,3-difluoro-1-methylpiperidin-4-yl)-3-methyl-1,3-dihydro-2H-imidazo[4,5-c]quinolin-2-one]	> 0.3	< 1	< 1
CN1CCC(n2c(=O)n(C)c3cnc4ccc(-c5ccc(N6CC(N(C)C)C6)nc5)cc4c32)C(F)(F)C1 (racemic) [Compound 11, (R/S)-1-(3,3-difluoro-1-methylpiperidin-4-yl)-8-(6-(3-(dimethylamino)azetidin-1-yl)pyridin-3-yl)-3-methyl-1,3-dihydro-2H-imidazo[4,5-c]quinolin-2-one]	> 0.3	< 1	< 1
CN1CCC(n2c(=O)n(C)c3cnc4ccc(-c5ccc(N6CC7C6CCN7C)nc5)cc4c32)C(F)(F)C1 (racemic) [Compound 13, (R/S)-1-(3,3-difluoro-1-methylpiperidin-4-yl)-3-methyl-8-(6-((1R,5R/1S,5S)-(2-methyl-2,6-diazabicyclo[3.2.0]heptan-6-yl)pyridin-3-yl)-1,3-dihydro-2H-imidazo[4,5-c]quinolin-2-one]	> 0.3	< 1	< 1
CCN1CC[C@@H](n2c(=O)n(C)c3cnc4ccc(-c5ccc(OC)nc5)cc4c32)C(F)(F)C1 [Compound 15, (R)-1-(1-ethyl-3,3-difluoropiperidin-4-yl)-8-(6-methoxypyridin-3-yl)-3-methyl-1,3-dihydro-2H-imidazo[4,5-c]quinolin-2-one]	> 0.3	< 1	< 1
COc1ccc(-c2ccc3ncc4c(c3c2)n([C@@H]2CCN(C(C)C)CC2(F)F)c(=O)n4C)cn1 [Compound 16, (R)-1-(3,3-difluoro-1-isopropylpiperidin-4-yl)-8-(6-methoxypyridin-3-yl)-3-methyl-1,3-dihydro-2H-imidazo[4,5-c]quinolin-2-one]	> 0.3	< 1	< 1
CCOc1ccc(-c2ccc3ncc4c(c3c2)n([C@@H]2CCN(C)CC2(F)F)c(=O)n4C)cn1 [Compound 17, (R)-1-(3,3-difluoro-1-methylpiperidin-4-yl)-8-(6-ethoxypyridin-3-yl)-3-methyl-1,3-dihydro-2H-imidazo[4,5-c]quinolin-2-one]	> 0.3	< 1	< 1
COc1ccc(-c2cc3c(cc2F)ncc2c3n([C@@H]3CCN(C)CC3(F)F)c(=O)n2C)cn1 [Compound 18, (R)-1-(3,3-difluoro-1-methylpiperidin-4-yl)-7-fluoro-8-(6-methoxypyridin-3-yl)-3-methyl-1,3-dihydro-2H-imidazo[4,5-c]quinolin-2-one]	> 0.3	< 1	< 1
CC(C)Oc1ccc(-c2ccc3ncc4c(c3c2)n([C@@H]2CCN(C)CC2(F)F)c(=O)n4C)cn1 [Compound 20, (R)-1-(3,3-difluoro-1-methylpiperidin-4-yl)-8-(6-isopropoxypyridin-3-yl)-3-methyl-1,3-dihydro-2H-imidazo[4,5-c]quinolin-2-one]	> 0.3	< 1	< 1
CN1CC[C@@H](n2c(=O)n(C)c3cnc4ccc(-c5ccc(N(C)C)nc5)cc4c32)C(F)(F)C1 [Compound 21, (R)-1-(3,3-difluoro-1-methylpiperidin-4-yl)-8-(6-(dimethylamino)pyridin-3-yl)-3-methyl-1,3-dihydro-2H-imidazo[4,5-c]quinolin-2-one]	> 0.3	< 1	< 1
CN1CC[C@@H](n2c(=O)n(C)c3cnc4ccc(-c5ccc(OC6CC6)nc5)cc4c32)C(F)(F)C1 [Compound 23, (R)-8-(6-cyclopropoxypyridin-3-yl)-1-(3,3-difluoro-1-methylpiperidin-4-yl)-3-methyl-1,3-dihydro-2H-imidazo[4,5-c]quinolin-2-one]	> 0.3	< 1	< 1
CN1CC[C@@H](n2c(=O)n(C)c3cnc4ccc(-c5ccc(N6CC(N(C)C)C6)nc5)cc4c32)C(F)(F)C1 [Compound 24, (R)-1-(3,3-difluoro-1-methylpiperidin-4-yl)-8-(6-(3-(dimethylamino)azetidin-1-yl)pyridin-3-yl)-3-methyl-1,3-dihydro-2H-imidazo[4,5-c]quinolin-2-one]	> 0.3	< 1	< 1
CN1CC[C@@H](n2c(=O)n(C)c3cnc4ccc(-c5ccc(N6C[C@@H]7[C@H]6CCN7C)nc5)cc4c32)C(F)(F)C1 [Compound 26]	> 0.3	< 1	< 1
CN1CC[C@@H](n2c(=O)n(C)c3cnc4ccc(-c5ccc(N6C[C@H]7[C@@H]6CCN7C)nc5)cc4c32)C(F)(F)C1 [Compound 27]	> 0.3	< 1	< 1
CCN1CC[C@H](n2c(=O)n(C)c3cnc4ccc(-c5ccc(OC)nc5)cc4c32)C(F)(F)C1 [Compound 29, (S)-1-(1-ethyl-3,3-difluoropiperidin-4-yl)-8-(6-methoxypyridin-3-yl)-3-methyl-1,3-dihydro-2H-imidazo[4,5-c]quinolin-2-one]	> 0.3	< 1	< 1
COc1ccc(-c2ccc3ncc4c(c3c2)n([C@H]2CCN(C(C)C)CC2(F)F)c(=O)n4C)cn1 [Compound 30, (S)-1-(3,3-difluoro-1-isopropylpiperidin-4-yl)-8-(6-methoxypyridin-3-yl)-3-methyl-1,3-dihydro-2H-imidazo[4,5-c]quinolin-2-one]	> 0.3	< 1	< 1
CCOc1ccc(-c2ccc3ncc4c(c3c2)n([C@H]2CCN(C)CC2(F)F)c(=O)n4C)cn1 [Compound 31, (S)-1-(3,3-difluoro-1-methylpiperidin-4-yl)-8-(6-ethoxypyridin-3-yl)-3-methyl-1,3-dihydro-2H-imidazo[4,5-c]quinolin-2-one]	> 0.3	< 1	< 1
